Among the data in patent US7473702B2, “Substituted gamma lactams as therapeutic agents” (Allergan, Inc., priority 2005, dated 2009) are EC50 and Ki values, retold here.

Structures are written as SMILES.

For one assay, the target named is T1, hEP3A (Homo sapiens, UniProt P43115).
T1 sequence (P43115 1-390): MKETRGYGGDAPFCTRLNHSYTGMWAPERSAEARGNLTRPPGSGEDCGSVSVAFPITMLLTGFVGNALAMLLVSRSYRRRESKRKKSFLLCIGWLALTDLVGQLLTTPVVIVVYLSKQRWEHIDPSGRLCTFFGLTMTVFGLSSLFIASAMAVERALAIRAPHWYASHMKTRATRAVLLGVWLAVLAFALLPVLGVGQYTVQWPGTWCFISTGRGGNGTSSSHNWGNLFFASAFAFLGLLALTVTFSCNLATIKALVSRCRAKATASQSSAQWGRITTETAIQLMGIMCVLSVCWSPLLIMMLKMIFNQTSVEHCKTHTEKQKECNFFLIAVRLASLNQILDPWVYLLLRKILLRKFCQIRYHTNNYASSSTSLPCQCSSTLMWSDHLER
In words: Other receptors functional EC50, hEP3A. In kind it is cell-based. An excerpt:
(§1) U.S. patent application Ser. No. 11/553,143, filed on Oct. 26, 2006, incorporated by reference herein, describes the methods used to obtain the in vitro data in the table below.

In assay [1] the target is T2, EP2 (Homo sapiens, UniProt P43116). Briefly: EP2 binding Ki.
T2 sequence (P43116 whole entry): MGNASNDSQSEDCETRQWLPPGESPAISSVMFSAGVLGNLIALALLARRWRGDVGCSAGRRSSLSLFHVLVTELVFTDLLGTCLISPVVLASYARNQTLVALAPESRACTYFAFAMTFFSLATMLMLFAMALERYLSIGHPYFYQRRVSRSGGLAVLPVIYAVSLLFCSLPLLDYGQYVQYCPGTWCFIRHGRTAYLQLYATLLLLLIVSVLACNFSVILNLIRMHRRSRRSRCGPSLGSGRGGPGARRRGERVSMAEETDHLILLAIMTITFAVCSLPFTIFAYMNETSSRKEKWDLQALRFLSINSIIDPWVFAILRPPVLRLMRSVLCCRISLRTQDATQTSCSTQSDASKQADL
Source text: as §1

The target of assay [2] is T2, EP2. Briefly: EP2 cAMP EC50. The class given is cell-based.
Source text: as §1

The target in another assay is T3, hDP (Homo sapiens, UniProt Q13258).
T3 sequence (Q13258 1-359): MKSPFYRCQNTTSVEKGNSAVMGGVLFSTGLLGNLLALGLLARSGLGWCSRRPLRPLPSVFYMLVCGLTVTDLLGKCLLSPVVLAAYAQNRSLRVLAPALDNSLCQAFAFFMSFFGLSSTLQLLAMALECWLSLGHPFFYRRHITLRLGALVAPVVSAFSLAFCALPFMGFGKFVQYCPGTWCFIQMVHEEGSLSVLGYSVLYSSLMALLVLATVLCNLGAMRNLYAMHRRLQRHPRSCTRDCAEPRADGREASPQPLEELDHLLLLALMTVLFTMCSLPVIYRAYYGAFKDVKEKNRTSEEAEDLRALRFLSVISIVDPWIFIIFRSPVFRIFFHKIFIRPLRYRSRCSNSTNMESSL
Briefly: Other receptors functional EC50, hDP. In kind it is cell-based.
Source text: as §1

Assay [3] concerns the target T2, EP2. Briefly: EP2 flipr EC50. The class given is cell-based.
Source text: as §1

The target in another assay is T4, hTP (Homo sapiens, UniProt P21731).
T4 sequence (P21731 1-343): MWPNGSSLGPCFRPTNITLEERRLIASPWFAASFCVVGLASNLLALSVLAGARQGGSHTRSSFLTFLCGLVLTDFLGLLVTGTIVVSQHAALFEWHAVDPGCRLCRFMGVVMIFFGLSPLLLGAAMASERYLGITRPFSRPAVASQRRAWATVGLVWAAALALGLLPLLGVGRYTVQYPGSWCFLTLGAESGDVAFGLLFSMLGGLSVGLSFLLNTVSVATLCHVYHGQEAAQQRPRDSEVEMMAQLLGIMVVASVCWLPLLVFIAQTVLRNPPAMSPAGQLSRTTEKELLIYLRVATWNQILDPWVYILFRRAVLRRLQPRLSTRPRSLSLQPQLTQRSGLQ
Briefly: Other receptors functional EC50, hTP. In kind it is cell-based.
Source text: as §1

On to `CCCCC[C@H](O)c1ccc(N2C(=O)CC[C@@H]2C/C=C/c2ccc(C(=O)O)s2)cc1`, for which the EC50 (in general, the concentration giving half of the maximal effect) was 2070 nM at hEP3A, 73 nM at EP2 [2] and greater than 10 µM at hDP. In addition, affinity on EP2 [1] was put at a Ki of 1420 nM.

For `CCCCC[C@H](O)c1ccc(N2C(=O)CC[C@@H]2/C=C\Cc2ccc(C(=O)O)s2)cc1`, the figures for the concentration giving a half-maximal response (EC50) at EP2 [3], on EP2 [2] and on hDP were 23 nM, 19 nM and greater than 10 µM, respectively. For the same compound, the Ki (as a rule, the equilibrium dissociation constant of an inhibitor or competing ligand from its target) at EP2 [1] came to 824 nM.

Regarding `CCCCCC(O)c1ccc(N2C(=O)CC[C@@H]2C/C=C\c2nc(C(=O)O)cs2)cc1` (stereo partly drawn), the EC50 at EP2 [3] was 17 nM; on hEP3A it was 43 nM; at EP2 [2], 0.75 nM; on hDP it was 1.85 µM. Further, the affinity on EP2 [1] corresponds to a Ki of 43 nM.

In the case of `CCCCCC(O)c1ccc(N2C(=O)CC[C@@H]2C/C=C/c2nc(C(=O)O)cs2)cc1` (stereo partly drawn), the 50% effective concentration (EC50) is 2980 nM on hEP3A, greater than 10 µM on hTP, 24 nM on EP2 [2] and greater than 10 µM at hDP. At EP2 [1], the affinity, expressed as Ki, was 2180 nM.
